Values joined by “and” are separate entries in the source; they are usually repeats but may differ in a detail not shown here. Equal entries are not always repeated. Where two headings read alike, the source gives them in different places.
Target: T1, Human K2P13.1 THIK-1 (WT) (Homo sapiens, UniProt Q9HB14)
T1 construct: expressed in transfected cells; host or cells: Xenopus oocytes (mRNA injection)
T1 sequence (Q9HB14 1-408): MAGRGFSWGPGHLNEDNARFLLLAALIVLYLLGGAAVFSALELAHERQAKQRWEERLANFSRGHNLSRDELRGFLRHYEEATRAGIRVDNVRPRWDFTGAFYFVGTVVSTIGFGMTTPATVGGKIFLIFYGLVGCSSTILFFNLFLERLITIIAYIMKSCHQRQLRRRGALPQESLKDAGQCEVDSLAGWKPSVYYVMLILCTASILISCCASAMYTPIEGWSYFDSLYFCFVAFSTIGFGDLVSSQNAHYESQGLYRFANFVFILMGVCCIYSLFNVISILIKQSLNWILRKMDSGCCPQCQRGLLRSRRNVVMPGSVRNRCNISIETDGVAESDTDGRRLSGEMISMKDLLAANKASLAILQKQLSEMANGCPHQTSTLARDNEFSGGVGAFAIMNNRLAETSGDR
Experiment: Macroscopic inside-out excised patch recordings from Xenopus oocytes expressing WT THIK-1; compounds applied to the intracellular side
Format: cell-based
Source text: Human K2P13.1 THIK-1 (GenBank accession number: NM_022054) and human K2P12.1 THIK-2 (NM_022055.1) were used in this study. For functional expression studies, the respective K^+ channel subtype coding sequences were subcloned into the oocyte expression vector pSGEM or the dual-purpose expression vector pFAW[41] and verified by sequencing. All mutant channels were obtained by site-directed mutagenesis and verified by sequencing. To increase surface expression and macroscopic currents, measurements of THIK-2 channels used a mutated ER retention motif, (R11A R12A R14A R15A R16A; THIK-2*)[20]. Vector DNA was linearized with NheI or MluI, and mRNA was synthesized in vitro using the SP6 or T7 AmpliCap Max High Yield Message Maker Kit (Cellscript, USA) or HiScribe T7 ARCA mRNA Kit (New England Biolabs).
Two-electrode voltage–clamp (TEVC) studies were performed in Xenopus oocytes. All animal use conformed to the Guide for the Care and Use of Laboratory Animals (NIH Publication 85–23), and all experiments using Xenopus toads were approved by the local ethics panels. Oocytes were stored at 17 °C in ND96 recording solution composed of (in mM): 96 NaCl, 2 KCl, 1.8 CaCl2, 1 MgCl2, 5 HEPES (pH 7.5 adjusted with NaOH and HCl), supplemented with Na-pyruvate (275 mg L^–1), theophylline (90 mg L^–1) and gentamicin (50 mg L^–1). Oocytes were injected with 1 ng mRNA for WT or mutant channels, and were incubated for 24–48 h at 17 °C. Two-electrode voltage clamp recordings were then performed as previously described[42],[43]. For macroscopic patch–clamp measurements, oocytes were obtained as described above incubated at 17 °C in a solution containing (mM): 54 NaCl, 30 KCl, 2.4 NaHCO3, 0.82 MgSO4 ×7 H2O, 0.41 CaCl2, 0.33 Ca(NO3)2 ×4 H2O and 7.5 TRIS (pH 7.4 adjusted with NaOH and HCl) for 1–4 days before use. Excised patch recordings in inside-out configuration conditions were performed at room temperature. Patch pipettes were made from thick-walled borosilicate glass GB 200TF-8P (Science Products), had resistances of 0.2–0.5 MΩ (tip diameter, 10–25 µm) and filled with a pipette solution (in mM): 120 KCl, 10 HEPES and 3.6 CaCl2 (pH 7.4 adjusted with KOH and HCl). Intracellular bath solutions and compounds were applied to the cytoplasmic side of excised patches for the various K^+ channels through a gravity flow multi-barrel pipette system. The intracellular solution had the following composition (in mM): 120 KCl, 10 HEPES, 2 EGTA and 1 pyrophosphate (pH adjusted with KOH and HCl). Currents were recorded with an EPC10 amplifier (HEKA Electronics) and sampled at 10 kHz or higher, with filtering set to 3 kHz (–3 dB) or higher, as appropriate for sampling rate. For measurements of GPCR activation, whole-cell currents were recorded for THIK-1 in transiently transfected HEK-293 cells. Cells were stimulated by a ramp protocol between −100 and +60 mV (holding potential, −80 mV). The pipette solution was composed of (in mM): 140 KCl, 2 MgCl2, 1 CaCl2, 2.5 EGTA and 10 HEPES (pH 7.3 adjusted with KOH and HCl). The extracellular bath solution had the following composition (in mM): 135 NaCl, 5 KCl, 2 MgCl2, 2 CaCl2, 10 glucose and 10 HEPES pH (pH 7.3 adjusted with NaOH and HCl). Oxotremorine M (Oxo-M) was added to extracellular bath solution to obtain the final concentration. Single-channel currents were recorded with an Axopatch 200B amplifier through a Digidata 1440A digitizer (Molecular Devices). Data were filtered at 2 kHz and recorded at a 200-kHz sampling rate with the program Clampex (Molecular Devices). Pipette solution and bath solution for cell-attached recordings contained (in mM): 140 KCl, 2 MgCl2, 1 CaCl2 and 10 HEPES (pH 7.4 adjusted with KOH and HCl). For inside-out recordings, the bath solution contained (in mM): 140 KCl, 2 MgCl2, 1 CaCl2 and 10 HEPES (pH 7.2 adjusted with KOH and HCl). All experiments were conducted at room temperature. […]

[1] = WT (unstimulated), individual recordings
[2] = WT, PIP2, individual recordings
[3] = WT, oleoyl-CoA, individual recordings

CCCCC[N+](CCCCC)(CCCCC)CCCCC [TPenA, tetrapentylammonium]
block of initial currents (0.5 mM TPenA, WT): ~ 80% | Normalized currents (THIK-1 WT (unstimulated), 0.01 µM TPenA): 1.00 | Normalized currents (THIK-1 WT (unstimulated), 0.1 µM TPenA): 0.97 | Normalized currents (THIK-1 WT (unstimulated), 1 µM TPenA): 0.94 | Normalized currents (THIK-1 WT (unstimulated), 10 µM TPenA): 0.88 | Normalized currents (THIK-1 WT (unstimulated), 15.6 µM TPenA): 0.89 | Normalized currents (THIK-1 WT (unstimulated), 62.5 µM TPenA): 0.75 | Normalized currents (THIK-1 WT (unstimulated), 100 µM TPenA): 0.71 | Normalized currents (THIK-1 WT (unstimulated), 250 µM TPenA): 0.49 | Normalized currents (THIK-1 WT (unstimulated), 1000 µM TPenA): 0.21 | Normalized currents (THIK-1 WT (unstimulated), 4000 µM TPenA): 0.09 | Normalized currents (THIK-1 WT (unstimulated), 5000 µM TPenA): 0.09 | Normalized currents (TPenA 0.01 µM, THIK-1 WT (oleoyl-CoA, 5 µM)): 1 | Normalized currents (TPenA 0.01 µM, THIK-1 WT (unstimulated)): 1.00 | Normalized currents (TPenA 0.1 µM, THIK-1 WT (PIP2)): 1 | Normalized currents (TPenA 0.1 µM, THIK-1 WT (oleoyl-CoA, 5 µM)): 0.87 | Normalized currents (TPenA 0.1 µM, THIK-1 WT (unstimulated)): 0.97 | Normalized currents (TPenA 1 µM, THIK-1 WT (PIP2)): 0.86 | Normalized currents (TPenA 1 µM, THIK-1 WT (oleoyl-CoA, 5 µM)): 0.81 | Normalized currents (TPenA 1 µM, THIK-1 WT (unstimulated)): 0.94 | Normalized currents (TPenA 4 µM, THIK-1 WT (PIP2)): 0.54 | Normalized currents (TPenA 4 µM, THIK-1 WT (oleoyl-CoA, 5 µM)): 0.48 | Normalized currents (TPenA 10 µM, THIK-1 WT (unstimulated)): 0.88 | Normalized currents (TPenA 15.6 µM, THIK-1 WT (PIP2)): 0.26 | Normalized currents (TPenA 15.6 µM, THIK-1 WT (oleoyl-CoA, 5 µM)): 0.22 | Normalized currents (TPenA 15.6 µM, THIK-1 WT (unstimulated)): 0.89 | Normalized currents (TPenA 62.5 µM, THIK-1 WT (PIP2)): 0.1 | Normalized currents (TPenA 62.5 µM, THIK-1 WT (oleoyl-CoA, 5 µM)): 0.09 | Normalized currents (TPenA 62.5 µM, THIK-1 WT (unstimulated)): 0.75 | Normalized currents (TPenA 100 µM, THIK-1 WT (unstimulated)): 0.71 | Normalized currents (TPenA 250 µM, THIK-1 WT (PIP2)): 0.03 | Normalized currents (TPenA 250 µM, THIK-1 WT (oleoyl-CoA, 5 µM)): 0.04 | Normalized currents (TPenA 250 µM, THIK-1 WT (unstimulated)): 0.49 | Normalized currents (TPenA 1000 µM, THIK-1 WT (PIP2)): 0.02 | Normalized currents (TPenA 1000 µM, THIK-1 WT (oleoyl-CoA, 5 µM)): 0.02 | Normalized currents (TPenA 1000 µM, THIK-1 WT (unstimulated)): 0.21 | Normalized currents (TPenA 4000 µM, THIK-1 WT (PIP2)): 0.01 | Normalized currents (TPenA 4000 µM, THIK-1 WT (oleoyl-CoA, 5 µM)): 0.02 | Normalized currents (TPenA 4000 µM, THIK-1 WT (unstimulated)): 0.09 | Normalized currents (TPenA 5000 µM, THIK-1 WT (unstimulated)): 0.09 | IC50 (TPenA IC50, THIK-1 WT, individual recordings): 228 µM and 219 µM and 204 µM (2×) and 231 µM and 268 µM and 259 µM and 120 µM and 223 µM and 194 µM and 240 µM and 308 µM | IC50 (TPenA IC50, THIK-1 WT, mean): 225 µM | IC50 (TPenA IC50, intracellular application to excised patches, WT unstimulated): 225 ± 13 µM | τ of 1 mM TPenA block [1]: 14.000 s and 10.890 s and 8.250 s and 24.220 s and 9.660 s and 10.730 s and 11.070 s and 13.110 s and 12.070 s and 8.080 s and 8.510 s | τ of 1 mM TPenA release [1]: 76.730 s and 96.620 s and 52.570 s and 76.880 s and 103.780 s and 38.820 s and 101.050 s and 68.790 s and 74.350 s and 174.000 s and 73.800 s | τ of 1 mM TPenA block (WT (unstimulated), mean): 11.87 s | τ of 1 mM TPenA release (WT (unstimulated), mean): 85.22 s | τblock (kinetics of TPenA block) (WT unstimulated): 12 ± 1 s | τrelease (kinetics of TPenA release) (WT unstimulated): 85 ± 11 s | τ of 1 mM TPenA block [2]: 0.324 s and 0.375 s and 0.323 s and 0.215 s and 0.293 s | τ of 1 mM TPenA release [2]: 29.360 s and 29.550 s and 28.630 s and 28.550 s and 38.470 s and 25.420 s | τblock (WT, PIP2 activated): 0.31 ± 0.02 s | τrelease (WT, PIP2 activated): 30 ± 2 s | τ of 1 mM TPenA block (WT, PIP2 activated, mean): 0.31 s | τ of 1 mM TPenA release (WT, PIP2 activated, mean): 30.00 s | τblock (WT, oleoyl-CoA activated): 0.5 ± 0.1 s | τrelease (WT, oleoyl-CoA activated): 11 ± 1 s | τ of 1 mM TPenA block (WT, oleoyl-CoA activated, mean): 0.53 s | τ of 1 mM TPenA release (WT, oleoyl-CoA activated, mean): 10.85 s | τ of 1 mM TPenA block [3]: 0.330 s and 0.560 s and 0.270 s and 0.340 s and 0.440 s and 0.930 s and 0.380 s and 0.720 s and 0.750 s and 0.360 s | τ of 1 mM TPenA release [3]: 7.190 s and 6.440 s and 12.640 s and 12.180 s and 15.140 s and 8.860 s and 13.480 s | inhibition at 15.6 µM (read-out: inhibition with 15.6 µM TPenA, WT channel in PIP2): 74 ± 1% | inhibition at 15.6 µM (read-out: inhibition with 15.6 µM TPenA, WT channel in oleoyl-CoA): 78 ± 1% | inhibition at 15.6 µM (read-out: inhibition with 15.6 µM TPenA, WT channel, unstimulated): 11 ± 1%

Source: publication PMC12263422, “Cryo-EM structure of the human THIK-1 K2P K^+ channel reveals a lower Y gate regulated by lipids and anesthetics” (Nature Structural & Molecular Biology, 2025)
